Laboratory results as given in US20250195530A1, “POLQ INHIBITORS” (ASTRAZENECA AB, priority 2022, published 2025).
Where two headings read alike, the source gives them in different places. Blank lines part the entries; values can stand above or below the compound they belong to.

Columns and labels:
DLD-1 cells = assay: Inhibition of proliferation, DLD-1 BRCA2 wt control (Cell Titre Glo 3D); format: cell-based; conditions: Homo sapiens
Outline: (§1)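 DLD-1 BRCA2−/− (3,000 cells/mL) and parental DLD-1 (1,500 cells/mL) cells in phenol red-free RPMI 1640 with 10% FBS were exposed to a 10-point, three-fold compound series from 10 μM to 0.51 nM at 37 °C, 5% CO2. Medium and compound were replenished on day 6. CellTiter-Glo 3D luminescence was read on day 7 (DLD-1) or day 12 (BRCA2−/−), and IC50 was taken as 50% reduction of maximum signal.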

DLD-1 BRCA2−/− cells = assay: Homologous recombination synthetic lethal inhibition of proliferation, DLD-1 BRCA2-/- (Cell Titre Glo 3D); format: cell-based; conditions: for IC50: Homo sapiens
Outline: as §1

[1] = DLD-1, second proliferation column (c6), DLD-1 BRCA2 wt control, read-out: POLQ PD Prolif Lumin (converted)
[2] = DLD-1, first proliferation column (c5), DLD-1 BRCA2-/-, read-out: POLQ PD Prolif Lumin (converted)
[3] = DLD-1, 168 h, DLD-1 BRCA2 wt cells, 7 days, read-out: POLQ PD Prolif Lumin DLD1 mean pIC50 (converted)
[4] = DLD-1, 288 h, DLD-1 BRCA2−/− cells, 12 days, read-out: POLQ PD Prolif Lumin BRCA2 −/− mean pIC50 (converted)
[5] = DLD-1, DLD1 BRCA2 wt cells, mean, read-out: POLQ PD Prolif Lumin DLD1 mean PIC50 (converted)
[6] = DLD-1, DLD-1 BRCA2 −/− cells, mean, read-out: POLQ PD Prolif Lumin BRCA2 −/− mean pIC50 (converted)
[7] = DLD-1, second proliferation column (c6), taken as DLD-1 BRCA2 wt, read-out: POLQ PD Prolif Lumin (converted)
[8] = DLD-1, first proliferation column (c5), taken as DLD-1 BRCA2-/-, read-out: POLQ PD Prolif Lumin (converted)
[9] = DLD-1, DLD-1 BRCA2 wt control proliferation, column head only partly shown, read-out: POLQ PD Prolif Lumin (converted)
[10] = DLD-1, DLD-1 BRCA2-/- proliferation, column head only partly shown, read-out: POLQ PD Prolif Lumin (converted)
[11] = DLD-1, DLD1 BRCA2 wt, mean, read-out: POLQ PD Prolif Lumin DLD1 mean pIC50 (converted)
[12] = DLD-1, DLD-1 BRCA2 −/−, mean, read-out: POLQ PD Prolif Lumin BRCA2 −/− mean pIC50 (converted)

SMILES: Cc1ccnc(Cn2c(-c3ccc(CC(=O)N4C[C@H]5C[C@@H](C4)O5)cc3Cl)nc3c(OC4(C)CC4)ncnc32)c1 [Example T547, rel-1-((1R,5S)-6-oxa-3-azabicyclo[3.1.1]heptan-3-yl)-2-(3-chloro-4-(6-(1-methylcyclopropoxy)-9-((4-methylpyridin-2-yl)methyl)-9H-purin-8-yl)phenyl)ethan-1-one]
IC50 (DLD-1 cells; [1]): > 10000 nM | IC50 (DLD-1 BRCA2−/− cells; [2]): 501 nM

SMILES: CC1(Oc2ncnc3c2nc(-c2ccc(OCCN4CCNCC4)cc2Cl)n3Cc2ccccn2)CC1 [Example E7, 8-(2-chloro-4-(2-(piperazin-1-yl)ethoxy)phenyl)-6-(1-methylcyclopropoxy)-9-(pyridin-2-ylmethyl)-9H-purine]
IC50 (DLD-1 cells; [3]): > 10000 nM | IC50 (DLD-1 BRCA2−/− cells; [4]): 1260 nM

SMILES: CC1(Oc2nccc3c2nc(-c2ccc(OCCN4CCNCC4)cc2Cl)n3Cc2cc(Cl)ccn2)CC1 [Example 16, 2-(2-chloro-4-(2-(piperazin-1-yl)ethoxy)phenyl)-1-((4-chloropyridin-2-yl)methyl)-4-(1-methylcyclopropoxy)-1H-imidazo[4,5-c]pyridine]
IC50 (DLD-1 cells; [3]): > 10000 nM | IC50 (DLD-1 BRCA2−/− cells; [4]): 398 nM

SMILES: C#CC1(Oc2ncnc3c2nc(-c2ccc(OCCN4CCNCC4)cc2Cl)n3Cc2ccccc2)CC1 [Example Q1, 9-benzyl-8-(2-chloro-4-(2-(piperazin-1-yl)ethoxy)phenyl)-6-(1-ethynylcyclopropoxy)-9H-purine]
IC50 (DLD-1 cells; [3]): > 10000 nM | IC50 (DLD-1 BRCA2−/− cells; [4]): 316 nM

SMILES: CN1CCC(Oc2cccc(-c3nc4c(OC5(C)CC5)ncnc4n3Cc3ccccc3)c2Cl)CC1 [Example D9, 9-benzyl-8-(2-chloro-3-((1-methylpiperidin-4-yl)oxy)phenyl)-6-(1-methylcyclopropoxy)-9H-purine]
IC50 (DLD-1 cells; [3]): 2000 nM | IC50 (DLD-1 BRCA2−/− cells; [4]): 158 nM

SMILES: CC(C)Oc1nccc2c1nc(-c1ccc(OCCN3CCNCC3)cc1Cl)n2Cc1ccccc1 [Example 9, 1-benzyl-2-(2-chloro-4-(2-(piperazin-1-yl)ethoxy)phenyl)-4-isopropoxy-1H-imidazo[4,5-c]pyridine]
IC50 (DLD-1 cells; [3]): 2510 nM | IC50 (DLD-1 BRCA2−/− cells; [4]): 631 nM

SMILES: CC1(Oc2ncnc3c2nc(-c2ccc(N4CC(N)C4)cc2Cl)n3Cc2ccccc2)CC1 [Example M1, 1-(4-(9-benzyl-6-(1-methylcyclopropoxy)-9H-purin-8-yl)-3-chlorophenyl)azetidin-3-amine]
IC50 (DLD-1 cells; [3]): > 10000 nM | IC50 (DLD-1 BRCA2−/− cells; [4]): 501 nM

SMILES: CC1(Oc2cccc3c2nc(-c2ccc(OCCC(=O)O)cc2Cl)n3Cc2cccc(Cl)c2)CCC1 [Example T406, 3-(3-chloro-4-(1-(3-chlorobenzyl)-4-(1-methylcyclobutoxy)-1H-benzo[d]imidazol-2-yl)phenoxy)propanoic acid]
IC50 (DLD-1 cells; DLD-1, proliferation, luminescence, second Prolif column (c6), taken as DLD-1 BRCA2 wt control, read-out: POLQ PD Prolif Lumin (converted)): > 10000 nM | IC50 (DLD-1 BRCA2−/− cells; DLD-1, proliferation, luminescence, taken as DLD-1 BRCA2-/-, read-out: POLQ PD Prolif Lumin (converted)): 2000 nM

SMILES: CC1(Oc2ncnc3c2nc(-c2ccc(OCCCC(=O)O)cc2Cl)n3Cc2cccc(Cl)c2)CC1 [Example 44, 4-(3-Chloro-4-(9-(3-chlorobenzyl)-6-(1-methylcyclopropoxy)-9H-purin-8-yl)phenoxy)butanoic acid]
IC50 (DLD-1 cells; DLD-1, 168 h, DLD-1 (BRCA2 wt control), 7 days, Cell Titre Glo 3D, read-out: POLQ PD Prolif Lumin DLD1 Mean pIC50 (converted)): > 10000 nM | IC50 (DLD-1 BRCA2−/− cells; DLD-1, 288 h, DLD-1 BRCA2−/−, 12 days, Cell Titre Glo 3D, read-out: POLQ PD Prolif Lumin BRCA2 −/− Mean pIC50 (converted)): 158 nM

SMILES: Cc1cc(OCCN2CCNCC2)ncc1-c1nc2c(OC3(C)CC3)ncnc2n1Cc1ccccc1 [Example G6, 9-benzyl-8-(4-methyl-6-(2-(piperazin-1-yl)ethoxy)pyridin-3-yl)-6-(1-methylcyclopropoxy)-9H-purine]
IC50 (DLD-1 cells; [3]): > 10000 nM | IC50 (DLD-1 BRCA2−/− cells; [4]): 501 nM

Continued, in another order:

IC50 (DLD-1 cells; [5]): > 10000 nM
SMILES: CNCc1ccc(-c2nc3c(OC4(C)CC4)ncnc3n2Cc2cc(C)ccn2)c(Cl)c1 [Example T68, 1-(3-chloro-4-(6-(1-methylcyclopropoxy)-9-((4-methylpyridin-2-yl)methyl)-9H-purin-8-yl)phenyl)-N-methylmethanamine]
IC50 (DLD-1 BRCA2−/− cells; [6]): 1000 nM

IC50 (DLD-1 cells; [1]): > 10000 nM
SMILES: Cc1ccnc(Cn2c(-c3ccc(CN4CCC(O)CC4)cc3Cl)nc3c(OC4(C)CC4)ncnc32)c1 [Example T508, 1-(3-chloro-4-(6-(1-methylcyclopropoxy)-9-((4-methylpyridin-2-yl)methyl)-9H-purin-8-yl)benzyl)piperidin-4-ol]
IC50 (DLD-1 BRCA2−/− cells; [2]): 316 nM

IC50 (DLD-1 cells; [7]): > 10000 nM
SMILES: CC1(Oc2ncnc3c2nc(-c2cccc(OCCCOCC(=O)O)c2Cl)n3Cc2cccc(Cl)c2)CC1 [Example T304, 2-(3-(2-chloro-3-(9-(3-chlorobenzyl)-6-(1-methylcyclopropoxy)-9H-purin-8-yl)phenoxy)propoxy)acetic acid]
IC50 (DLD-1 BRCA2−/− cells; [8]): 100 nM

IC50 (DLD-1 cells; [7]): > 10000 nM
SMILES: CC(OCCOc1ccc(-c2nc3c(OC4(C)CC4)ncnc3n2Cc2cccc(Cl)c2)c(Cl)c1)C(=O)O (racemic) [Example T305, rac-(R)-2-(2-(3-chloro-4-(9-(3-chlorobenzyl)-6-(1-methylcyclopropoxy)-9H-purin-8-yl)phenoxy)ethoxy)propanoic acid]
IC50 (DLD-1 BRCA2−/− cells; [8]): 794 nM

IC50 (DLD-1 cells; [1]): > 10000 nM
SMILES: Cc1cnc(Cn2c(-c3ccc(OC[C@H]4CCCN4)cc3Cl)nc3c(OC4(C)CC4)ncnc32)s1 [Example T139, (R)-2-((8-(2-chloro-4-(pyrrolidin-2-ylmethoxy)phenyl)-6-(1-methylcyclopropoxy)-9H-purin-9-yl)methyl)-5-methylthiazole]
IC50 (DLD-1 BRCA2−/− cells; [2]): 398 nM

IC50 (DLD-1 cells; [3]): > 10000 nM
SMILES: CC(Cc1ccccn1)n1c(-c2ccc(OCCN3CCNCC3)cc2Cl)nc2c(OC3(C)CC3)ncnc21 (single isomer, unassigned) [Example S8, 8-(2-chloro-4-(2-(piperazin-1-yl)ethoxy)phenyl)-6-(1-methylcyclopropoxy)-9-(1-(pyridin-2-yl)propan-2-yl)-9H-purine]
POLQ PD Prolif Lumin BRCA2 −/− mean pIC50 (DLD-1 BRCA2−/− cells; DLD-1 BRCA2−/− cells, 12 days): 5.0

IC50 (DLD-1 cells; [9]): > 10000 nM
SMILES: CN(C)CCCOc1ccc(-c2nc3c(OC4(C)CC4)ncnc3n2Cc2cc(Cl)ccn2)c(F)c1 [Example T231, 3-(4-(9-((4-chloropyridin-2-yl)methyl)-6-(1-methylcyclopropoxy)-9H-purin-8-yl)-3-fluorophenoxy)-N,N-dimethylpropan-1-amine]
IC50 (DLD-1 BRCA2−/− cells; [10]): 251 nM

IC50 (DLD-1 cells; [11]): > 10000 nM
SMILES: COc1ccc(F)cc1Cn1c(-c2cccc(OCCC(=O)O)c2Cl)nc2c(OC3(C)CC3)ncnc21 [Example U83, 3-(2-chloro-3-(9-(5-fluoro-2-methoxybenzyl)-6-(1-methylcyclopropoxy)-9H-purin-8-yl)phenoxy)propanoic acid]
IC50 (DLD-1 BRCA2−/− cells; [12]): 50.1 nM

IC50 (DLD-1 cells; [11]): > 10000 nM
SMILES: COc1ccc(Cl)cc1Cn1c(-c2cccc(OCC[C@H](C)C(=O)O)c2Cl)nc2c(OC3(C)CC3)ncnc21 [Example U73, (S)-4-(2-chloro-3-(9-(5-chloro-2-methoxybenzyl)-6-(1-methylcyclopropoxy)-9H-purin-8-yl)phenoxy)-2-methylbutanoic acid]
IC50 (DLD-1 BRCA2−/− cells; [12]): 2 nM

IC50 (DLD-1 cells; [7]): > 10000 nM
SMILES: CC1(Oc2ncnc3c2nc(-c2ccc(OCCN4CC(O)C4)cc2Cl)n3Cc2cc(C(F)F)ccn2)CC1 [Example T307, 1-(2-(3-chloro-4-(9-((4-(difluoromethyl)pyridin-2-yl)methyl)-6-(1-methylcyclopropoxy)-9H-purin-8-yl)phenoxy)ethyl)azetidin-3-ol]
IC50 (DLD-1 BRCA2−/− cells; [8]): 1580 nM

IC50 (DLD-1 cells; [7]): > 10000 nM
SMILES: CC1(Oc2ncnc3c2nc(-c2ccc(OCCN4CCNCC4)cc2Cl)n3Cc2ccnc(Cl)c2)CC1 [Example T378, 8-(2-chloro-4-(2-(piperazin-1-yl)ethoxy)phenyl)-9-((2-chloropyridin-4-yl)methyl)-6-(1-methylcyclopropoxy)-9H-purine]
IC50 (DLD-1 BRCA2−/− cells; [8]): 1580 nM

IC50 (DLD-1 cells; [1]): > 10000 nM
SMILES: Cc1ccnc(Cn2c(-c3ccc(OC4CNC(=O)C4)cc3Cl)nc3c(OC4(C)CC4)ncnc32)c1 (racemic) [Example T179, 4-(3-chloro-4-(6-(1-methylcyclopropoxy)-9-((4-methylpyridin-2-yl)methyl)-9H-purin-8-yl)phenoxy)pyrrolidin-2-one]
IC50 (DLD-1 BRCA2−/− cells; [2]): 316 nM

IC50 (DLD-1 cells; [9]): > 10000 nM
SMILES: CC1(Oc2ncnc3c2nc(-c2cccc(OCCCCC(=O)O)c2Cl)n3Cc2cccc(Cl)c2)CC1 [Example T292, 5-(2-chloro-3-(9-(3-chlorobenzyl)-6-(1-methylcyclopropoxy)-9H-purin-8-yl)phenoxy)pentanoic acid]
IC50 (DLD-1 BRCA2−/− cells; [10]): 31.6 nM

IC50 (DLD-1 cells; [5]): > 10000 nM
SMILES: CC1(Oc2ncnc3c2nc(-c2cccc(OCCC(=O)O)c2Cl)n3Cc2cccc(Cl)c2)CC1 [Example T89, 3-(2-chloro-3-(9-(3-chlorobenzyl)-6-(1-methylcyclopropoxy)-9H-purin-8-yl)phenoxy)propanoic acid]
IC50 (DLD-1 BRCA2−/− cells; [6]): 39.8 nM
